Laboratory results published in PubChem BioAssay (NCI).
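In this assay, cells in 96-well plates receive the compound at five concentrations for 48 hours. Endpoints are linearly interpolated between the surrounding concentrations. At the GI50, growth is halved. The concentration for full growth arrest is given as TGI.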

Experiments:
Assay in all cases: NCI anticancer screen, dose series, 48 h
SNB-19 CNS = system: SNB-19 CNS
NCI-H522 lung = system: NCI-H522 lung
IGROV1 ovarian = system: IGROV1 ovarian
TK-10 renal = system: TK-10 renal
DLD-1 colon = system: DLD-1 colon
M19-MEL melanoma = system: M19-MEL melanoma
SK-MEL-2 melanoma = system: SK-MEL-2 melanoma
786-0 renal = system: 786-0 renal
HOP-92 NSCLC = system: HOP-92 NSCLC
MCF7 breast = system: MCF7 breast

SMILES	TGI (SNB-19 CNS)	TGI (NCI-H522 lung)	TGI (IGROV1 ovarian)	TGI (TK-10 renal)	TGI (DLD-1 colon)	TGI (M19-MEL melanoma)	TGI (SK-MEL-2 melanoma)	TGI (786-0 renal)	GI50 (HOP-92 NSCLC)	TGI (HOP-92 NSCLC)	GI50 (SNB-19 CNS)	GI50 (NCI-H522 lung)	GI50 (IGROV1 ovarian)	GI50 (TK-10 renal)	GI50 (MCF7 breast)	TGI (MCF7 breast)	GI50 (SK-MEL-2 melanoma)	GI50 (786-0 renal)
N=S(=O)(c1ccccc1)c1ccccc1[N+](=O)[O-] (stereo unspecified)	> 100 µM	> 100 µM	> 100 µM	> 100 µM	> 100 µM	> 100 µM	> 100 µM	> 100 µM	–	–	–	–	–	–	–	–	–	–
O=S1(=O)N(Cc2ccccc2)[C@@H](Cc2ccccc2)C2O[C@H]2[C@H](Cc2ccccc2)N1Cc1ccccc1 (stereo partly specified)	> 7.5 µM	> 7.5 µM	> 7.5 µM	> 7.5 µM	–	–	> 7.5 µM	> 7.5 µM	> 7.5 µM	> 7.5 µM	> 7.5 µM	1.83 µM	5.06 µM	3.9 µM	4.27 µM	> 7.5 µM	> 7.5 µM	5.12 µM
NS(=O)(=O)c1ccc(C2C3=C(CCCC3=O)OC3=C2C(=O)c2ccccc2C3=O)cc1 (stereo unspecified)	2.52 µM	0.563 µM	1.2 µM	3.17 µM	–	–	2.38 µM	3.02 µM	0.847 µM	2.48 µM	1.24 µM	0.174 µM	0.347 µM	1.78 µM	0.221 µM	0.752 µM	0.604 µM	1.64 µM
O=C1O[C@H](C(Cl)(Cl)Cl)N2CCCC12 (stereo partly specified)	> 100 µM	> 100 µM	> 100 µM	> 100 µM	–	> 100 µM	> 100 µM	> 100 µM	–	> 100 µM	–	–	–	–	–	–	–	–
O=c1[nH]c(-c2ccccc2)nc2ccc(Cl)cc12	> 100 µM	95.7 µM	–	> 100 µM	–	> 100 µM	> 100 µM	> 100 µM	–	84.1 µM	–	–	–	–	–	–	–	–
OCc1cccc(-c2ccc3ncc(-c4nc(NC5CC5)ncc4F)n3c2)c1	4.18 µM	2.34 µM	1.32 µM	> 100 µM	–	–	0.671 µM	3.03 µM	0.303 µM	0.901 µM	0.323 µM	0.316 µM	0.227 µM	0.3 µM	0.308 µM	1.19 µM	0.244 µM	0.347 µM
Cc1nc2cncc(C#Cc3cncc(C(=O)Nc4ccc(CN5CCN(C)CC5)c(C(F)(F)F)c4)c3)c2nc1C	13.2 µM	8.21 µM	1.29 µM	7 µM	–	–	0.94 µM	7.4 µM	0.204 µM	1.13 µM	5.08 µM	0.466 µM	0.206 µM	0.727 µM	0.841 µM	6.78 µM	0.204 µM	0.925 µM
O=C(Nc1c(Cl)cc([N+](=O)[O-])cc1Cl)C(=O)C1C(=O)NC(=S)NC1=O	> 100 µM	> 100 µM	> 100 µM	> 100 µM	–	–	> 100 µM	> 100 µM	–	> 100 µM	–	–	–	–	–	> 100 µM	–	–
CS(=O)(=O)N(CCC#N)c1ccc(/C=N/NC(=O)CC(=O)Nc2cccc(Cl)c2)cc1	> 100 µM	> 100 µM	> 100 µM	> 100 µM	> 100 µM	> 100 µM	> 100 µM	> 100 µM	–	–	–	–	–	–	–	–	–	–
COc1cccc2c1C1(O)C2CCCC12OCCCO2 (stereo unspecified)	> 100 µM	> 100 µM	> 100 µM	> 100 µM	> 100 µM	> 100 µM	> 100 µM	> 100 µM	–	–	–	–	–	–	–	–	–	–
